The numbers were not newly measured in patent US20230310429A1, “FORMULATIONS FOR REDUCING HAIR LOSS AND/OR INCREASING HAIR REGROWTH” (TRIPLE HAIR INC., priority 2020, published 2023), which cites them from elsewhere.

The pKa is the negative logarithm of the acid dissociation constant.

Assay in data set [1]: not given
This is another data set of the same source.

Assay in data set [2]: not given
The source holds these as a separate data set.

In the next data set the test system is regrowth of the hair. To be noted: topical.
For data set [3], the system named is prostaglandin endoperoxide synthase-1 (PGHS-1). To be noted: oxygen consumption in PGE2 production; Michelet et al. 1997.

Each structure is given as a SMILES string. Where two headings read alike, the source gives them in different places.

Turning to `CC(C)(C)NC(=O)[C@H]1CC[C@H]2[C@@H]3CC[C@H]4NC(=O)C=C[C@]4(C)[C@H]3CC[C@]12C` [Finasteride, ((5α,17β)-N-(1,1-Dimethylethyl)-3-oxo-4-azaandrost-1-ene-17-carboxamide)], the “solubility (in words)” value is listed as “very slightly soluble” (0.1N HCl); “very slightly soluble” (0.1N NaOH); “freely soluble” (DMSO); “freely soluble” (chloroform); “freely soluble” (ethanol); “freely soluble” (methanol). The “solubility (in words)” value runs as follows: (n-propanol) “freely soluble”; (polyethylene glycol 400) “sparingly soluble”; (propylene glycol) “sparingly soluble”; (water) “not soluble”.
Turning to `CC(C)OC(=O)CCC/C=C\C[C@@H]1[C@@H](CC[C@@H](O)CCc2ccccc2)[C@H](O)C[C@@H]1O` [Latanoprost], the “solubility (in words)” value is, setting by setting: (acetone) “freely soluble”; (acetonitrile) “very soluble”; (ethanol) “freely soluble”; (ethyl acetate) “freely soluble”; (isopropanol) “freely soluble”; (methanol) “freely soluble”. Moreover, the “solubility (in words)” value is “freely soluble” (octanol) and “practically insoluble” (water). Also, the other adverse effects entry in data set [1] (in vivo) is “erythema, folliculitis, sensation of burning and erysipelas”. In addition, the “side effect on periocular hair and eyelashes” value in data set [1] (ophthalmic use) is “augmentation of periocular hirsuteness”.
For the molecule `Nc1cc(N2CCCCC2)nc(N)[n+]1[O-]` [Minoxidil, (6-(1-pipedidinyl)-2,4-pyrimidinediamine 3-oxide)], the pKa in data set [2] is reported as 4.61. Besides, the “effective in promoting regrowth of the hair” value in the data set with regrowth of the hair is given as “less than 40%”. In addition, the “activation of purified PGHS-1” value in data set [3] is “potent activator”.
